EC50 and IC50 data for 19 compounds are collected here from US10294227B2, “Compounds” (UNIVERSITY COURT OF THE UNIVERSITY OF EDINBURGH, priority 2015, dated 2019).

The test system of one assay is MDA-MB-231 cells. The assay can be described thus: Cell viability assay (PrestoBlue). Format: cell-based. The note with it: Homo sapiens, MDA-MB-231, 120 h, read-out: Antiproliferative activity (EC50) MDA-MB-231; cell viability at day 5.
The next assay has as its target ABL (Homo sapiens (Human), UniProt P00519). The assay can be described thus: Kinase screening assay (IC50). Format: biochemical. The note with it: 10 μM ATP; read-out: Target inhibition (IC50) ABL.
The target of another assay is mTOR (Homo sapiens (Human), UniProt P42345). The assay can be described thus: Kinase screening assay (IC50). Format: biochemical. The note with it: 10 μM ATP; read-out: Target inhibition (IC50) mTOR.
For the next assay, the target named is PDGFRa (Homo sapiens (Human), UniProt P16234). The assay can be described thus: Kinase screening assay (IC50). Format: biochemical. As to conditions: 10 μM ATP; read-out: Target inhibition (IC50) PDGFRa.
A further assay concerns the target KIT (Homo sapiens (Human), UniProt P10721). Put plainly: Kinase screening assay (IC50). As to conditions: read-out: Target inhibition (IC50) KIT; 10 μM ATP.
Another assay has as its target RET (Homo sapiens (Human), UniProt P07949). The assay can be described thus: Kinase screening assay (IC50). The note with it: read-out: Target inhibition (IC50) RET; 10 μM ATP.
The target in the next assay is BLK (Homo sapiens (Human), UniProt P51451). The assay can be described thus: Kinase screening assay (IC50). The note with it: read-out: Target inhibition (IC50) BLK; 10 μM ATP.
The target in the next assay is FRK/PTK5 (Homo sapiens (Human), UniProt P42685). Put plainly: Kinase screening assay (IC50). As to conditions: read-out: Target inhibition (IC50) FRK/PTK5; 10 μM ATP.
Another assay concerns the target HCK (Homo sapiens (Human), UniProt P08631). Put plainly: Kinase screening assay (IC50). As to conditions: read-out: Target inhibition (IC50) HCK; 10 μM ATP.
A further assay deals with LCK (Homo sapiens (Human), UniProt P06239). The assay can be described thus: Kinase screening assay (IC50).
A further assay concerns the target LYN (Homo sapiens (Human), UniProt P07948). The assay can be described thus: Kinase screening assay (IC50). The note with it: read-out: Target inhibition (IC50) LYN; 10 μM ATP.
A further assay has as its target FGR (Homo sapiens (Human), UniProt P09769). Put plainly: Kinase screening assay (IC50).
Another assay has as its system MCF7 cells. Put plainly: Cell viability assay (PrestoBlue). As to conditions: Homo sapiens, MCF7, 120 h; cell viability at day 5; read-out: Antiproliferative activity (EC50) MCF7. Format: cell-based.
Setting [1] is: read-out: Target inhibition (IC50) LCK, 10 μM ATP.

SMILES strings stand for the structures. Where two headings read alike, the source gives them in different places.

Chain of PDGFRa (P16234 24-1089): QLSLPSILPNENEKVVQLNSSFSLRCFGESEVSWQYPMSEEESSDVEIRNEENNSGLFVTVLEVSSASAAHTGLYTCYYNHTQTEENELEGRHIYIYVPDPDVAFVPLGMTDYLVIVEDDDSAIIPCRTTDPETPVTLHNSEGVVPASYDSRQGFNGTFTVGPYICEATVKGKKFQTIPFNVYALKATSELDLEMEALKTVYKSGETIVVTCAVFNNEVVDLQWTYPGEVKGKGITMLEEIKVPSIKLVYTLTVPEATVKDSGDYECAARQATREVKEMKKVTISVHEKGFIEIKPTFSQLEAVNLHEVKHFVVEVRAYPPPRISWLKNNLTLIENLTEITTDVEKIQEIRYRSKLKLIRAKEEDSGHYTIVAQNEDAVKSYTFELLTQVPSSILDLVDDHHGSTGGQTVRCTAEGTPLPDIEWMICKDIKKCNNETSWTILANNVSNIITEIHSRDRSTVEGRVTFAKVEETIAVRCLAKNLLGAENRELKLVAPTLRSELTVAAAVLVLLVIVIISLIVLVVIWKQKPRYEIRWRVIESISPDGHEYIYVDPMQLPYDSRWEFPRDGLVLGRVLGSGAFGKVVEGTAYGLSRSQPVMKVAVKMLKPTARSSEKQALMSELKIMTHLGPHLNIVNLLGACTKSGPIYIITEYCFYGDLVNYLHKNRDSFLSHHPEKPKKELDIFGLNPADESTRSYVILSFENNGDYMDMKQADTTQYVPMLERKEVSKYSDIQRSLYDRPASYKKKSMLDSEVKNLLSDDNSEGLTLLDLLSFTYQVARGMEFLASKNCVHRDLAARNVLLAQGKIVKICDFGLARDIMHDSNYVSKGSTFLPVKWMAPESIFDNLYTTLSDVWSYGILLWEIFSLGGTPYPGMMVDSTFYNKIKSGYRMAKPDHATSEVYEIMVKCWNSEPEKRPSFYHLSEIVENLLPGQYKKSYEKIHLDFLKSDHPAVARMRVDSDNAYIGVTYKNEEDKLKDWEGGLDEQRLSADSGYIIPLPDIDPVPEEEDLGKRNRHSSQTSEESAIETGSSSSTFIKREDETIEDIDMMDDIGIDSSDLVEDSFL
Chain of KIT (P10721 26-976): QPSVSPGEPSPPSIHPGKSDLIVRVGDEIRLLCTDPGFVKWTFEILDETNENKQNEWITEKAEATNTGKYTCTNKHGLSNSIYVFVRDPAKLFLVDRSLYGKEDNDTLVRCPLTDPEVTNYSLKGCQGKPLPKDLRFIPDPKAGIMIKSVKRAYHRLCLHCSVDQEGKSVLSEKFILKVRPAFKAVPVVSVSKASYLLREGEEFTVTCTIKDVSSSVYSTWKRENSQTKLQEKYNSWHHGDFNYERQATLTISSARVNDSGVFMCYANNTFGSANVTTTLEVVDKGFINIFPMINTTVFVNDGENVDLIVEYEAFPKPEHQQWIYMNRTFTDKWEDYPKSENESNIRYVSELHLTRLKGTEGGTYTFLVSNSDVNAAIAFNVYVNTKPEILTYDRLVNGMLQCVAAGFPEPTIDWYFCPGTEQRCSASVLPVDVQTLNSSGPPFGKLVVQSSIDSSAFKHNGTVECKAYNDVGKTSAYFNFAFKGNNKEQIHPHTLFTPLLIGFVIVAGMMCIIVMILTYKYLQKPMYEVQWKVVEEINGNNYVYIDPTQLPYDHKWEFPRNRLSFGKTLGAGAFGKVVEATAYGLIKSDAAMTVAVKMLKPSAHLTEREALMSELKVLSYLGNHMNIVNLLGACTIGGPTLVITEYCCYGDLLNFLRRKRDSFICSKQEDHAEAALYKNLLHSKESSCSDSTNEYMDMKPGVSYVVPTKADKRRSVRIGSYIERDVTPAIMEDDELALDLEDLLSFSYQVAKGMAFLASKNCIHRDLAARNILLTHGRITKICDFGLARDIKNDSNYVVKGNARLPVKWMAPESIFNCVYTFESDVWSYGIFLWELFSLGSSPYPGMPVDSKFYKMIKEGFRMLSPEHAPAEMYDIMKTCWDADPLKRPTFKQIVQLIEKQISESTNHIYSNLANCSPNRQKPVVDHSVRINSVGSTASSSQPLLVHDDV
Chain of FRK/PTK5 (P42685 whole entry): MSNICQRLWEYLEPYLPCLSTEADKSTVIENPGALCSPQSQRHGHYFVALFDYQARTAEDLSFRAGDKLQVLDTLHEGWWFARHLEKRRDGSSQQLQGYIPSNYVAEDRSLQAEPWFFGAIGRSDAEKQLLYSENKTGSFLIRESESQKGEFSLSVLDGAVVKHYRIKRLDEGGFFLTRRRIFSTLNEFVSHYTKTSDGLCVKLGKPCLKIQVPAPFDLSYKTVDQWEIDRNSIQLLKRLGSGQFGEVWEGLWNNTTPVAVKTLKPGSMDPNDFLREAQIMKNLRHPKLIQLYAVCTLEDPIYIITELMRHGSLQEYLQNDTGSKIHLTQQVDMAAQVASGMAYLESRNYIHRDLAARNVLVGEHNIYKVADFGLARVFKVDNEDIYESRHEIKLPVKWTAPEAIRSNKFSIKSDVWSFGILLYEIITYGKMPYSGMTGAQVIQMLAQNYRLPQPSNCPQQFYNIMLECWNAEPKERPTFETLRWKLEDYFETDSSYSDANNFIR
Chain of LCK (P06239 whole entry): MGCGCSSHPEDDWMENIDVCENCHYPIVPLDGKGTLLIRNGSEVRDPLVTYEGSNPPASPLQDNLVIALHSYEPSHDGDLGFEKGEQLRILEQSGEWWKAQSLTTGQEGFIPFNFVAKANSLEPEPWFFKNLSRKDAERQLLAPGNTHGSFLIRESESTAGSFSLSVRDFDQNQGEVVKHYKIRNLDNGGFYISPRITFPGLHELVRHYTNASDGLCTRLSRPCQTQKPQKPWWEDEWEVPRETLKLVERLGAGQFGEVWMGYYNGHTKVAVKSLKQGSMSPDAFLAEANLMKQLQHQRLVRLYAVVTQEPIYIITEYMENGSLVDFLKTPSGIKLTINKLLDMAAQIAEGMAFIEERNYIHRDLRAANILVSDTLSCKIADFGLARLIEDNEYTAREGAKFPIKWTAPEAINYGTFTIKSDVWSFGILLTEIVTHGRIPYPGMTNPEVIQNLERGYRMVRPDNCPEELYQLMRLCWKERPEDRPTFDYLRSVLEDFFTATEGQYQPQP
Chain of RET (P07949 29-1114): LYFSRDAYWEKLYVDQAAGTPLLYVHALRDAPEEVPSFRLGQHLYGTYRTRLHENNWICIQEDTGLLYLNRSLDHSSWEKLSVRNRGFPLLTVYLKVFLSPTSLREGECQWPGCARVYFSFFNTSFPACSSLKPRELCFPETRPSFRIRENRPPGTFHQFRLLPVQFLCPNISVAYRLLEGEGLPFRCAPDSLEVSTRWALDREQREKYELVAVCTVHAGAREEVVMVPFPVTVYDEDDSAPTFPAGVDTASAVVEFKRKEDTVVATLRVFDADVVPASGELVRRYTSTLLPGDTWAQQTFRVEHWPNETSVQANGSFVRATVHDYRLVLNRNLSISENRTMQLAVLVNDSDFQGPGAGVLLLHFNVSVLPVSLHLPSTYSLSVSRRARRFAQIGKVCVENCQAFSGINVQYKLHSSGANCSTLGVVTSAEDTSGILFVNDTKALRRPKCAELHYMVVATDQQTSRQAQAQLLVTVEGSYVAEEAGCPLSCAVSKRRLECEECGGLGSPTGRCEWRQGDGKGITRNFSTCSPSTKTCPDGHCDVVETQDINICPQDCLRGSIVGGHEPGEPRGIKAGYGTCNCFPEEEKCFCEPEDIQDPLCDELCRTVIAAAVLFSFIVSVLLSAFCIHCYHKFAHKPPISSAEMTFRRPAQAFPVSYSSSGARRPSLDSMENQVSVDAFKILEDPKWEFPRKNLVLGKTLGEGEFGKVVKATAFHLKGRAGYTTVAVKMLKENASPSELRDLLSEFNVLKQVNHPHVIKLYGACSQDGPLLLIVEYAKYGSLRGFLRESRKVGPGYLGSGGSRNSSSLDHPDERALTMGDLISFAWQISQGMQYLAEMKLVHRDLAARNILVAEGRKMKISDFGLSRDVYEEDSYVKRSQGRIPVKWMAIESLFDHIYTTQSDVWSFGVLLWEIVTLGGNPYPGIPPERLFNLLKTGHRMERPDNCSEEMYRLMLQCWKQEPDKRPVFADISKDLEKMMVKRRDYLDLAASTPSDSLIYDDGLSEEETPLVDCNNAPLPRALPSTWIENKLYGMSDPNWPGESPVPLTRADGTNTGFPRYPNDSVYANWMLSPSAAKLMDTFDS
Chain of HCK (P08631 whole entry): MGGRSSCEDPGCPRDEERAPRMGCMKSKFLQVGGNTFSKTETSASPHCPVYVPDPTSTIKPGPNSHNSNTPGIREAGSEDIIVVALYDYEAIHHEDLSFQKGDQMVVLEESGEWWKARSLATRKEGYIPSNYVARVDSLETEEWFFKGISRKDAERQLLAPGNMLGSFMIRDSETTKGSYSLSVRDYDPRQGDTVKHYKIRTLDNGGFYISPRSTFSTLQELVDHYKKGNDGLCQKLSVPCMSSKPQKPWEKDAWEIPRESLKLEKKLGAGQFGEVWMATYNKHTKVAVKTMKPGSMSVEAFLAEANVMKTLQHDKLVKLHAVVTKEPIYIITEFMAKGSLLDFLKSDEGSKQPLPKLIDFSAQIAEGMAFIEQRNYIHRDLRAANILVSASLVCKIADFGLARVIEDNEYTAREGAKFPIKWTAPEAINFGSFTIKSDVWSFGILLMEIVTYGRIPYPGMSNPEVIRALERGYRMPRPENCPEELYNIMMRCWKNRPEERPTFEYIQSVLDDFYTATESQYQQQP

Consider `CN(C)C1CCN(CCn2nc(-c3ccc(CC#N)cc3)c3c(N)ncnc32)CC1` [Compound 5-100, 2-[4-[4-amino-1-[2-[4-(dimethylamino)-1-piperidyl]ethyl]pyrazolo[3,4-d]pyrimidin-3-yl]phenyl]acetonitrile], for which the EC50 in the assay with MDA-MB-231 cells is over 10 µM.

`COc1cc(-c2nn(CCN3CCCC(N(C)C)C3)c3ncnc(N)c23)ccc1NC(=O)OC(C)(C)C` (stereo not drawn) [Compound 5-103, tert-butyl N-[4-[4-amino-1-[2-[3-(dimethylamino)-1-piperidyl]ethyl]pyrazolo[3,4-d]pyrimidin-3-yl]-2-methoxy-phenyl]carbamate]: the EC50 in the assay with MDA-MB-231 cells lay in the range of 1 to 10 µM.

In the case of `Cc1ccc(-c2nn(CCN3CCN(CCN(C)C)CC3)c3ncnc(N)c23)cc1` [Compound 105, 1-[2-[4-(2-dimethylaminoethyl)piperazin-1-yl]ethyl]-3-(p-tolyl)pyrazolo[3,4-d]pyrimidin-4-amine], the IC50 on ABL, on mTOR, at PDGFRa, at KIT, at RET and at BLK was over 1 µM each time. Also, the IC50 at FRK/PTK5, at HCK and on LCK (setting [1]) was over 1 µM in each case.

Turning to `Cc1ccc(-c2nn(CCN3CCC(CN(C)C)CC3)c3ncnc(N)c23)cc1` [Compound 112, 1-[2-[4-(dimethylaminomethyl)-1-piperidyl]ethyl]-3-(p-tolyl)pyrazolo[3,4-d]pyrimidin-4-amine], the IC50 on mTOR, on PDGFRa, on KIT, on RET, at BLK and on FRK/PTK5 was over 1 µM each time. In addition, the IC50 at HCK, on LCK (setting [1]) and at LYN was over 1 µM throughout.

On to `Cc1ccc(-c2nn(CCN3CCC(CCN(C)C)CC3)c3ncnc(N)c23)cc1` [Compound 113, 1-[2-[4-(2-dimethylaminoethyl)-1-piperidyl]ethyl]-3-(p-tolyl)pyrazolo[3,4-d]pyrimidin-4-amine], for which the IC50 at mTOR is over 1 µM; at PDGFRa, over 1 µM; at KIT it was over 1 µM; at RET, over 1 µM; against FGR, 0.1 to 1 µM; at FRK/PTK5, over 1 µM. For the same compound, the IC50 on HCK, at LCK (setting [1]) and on LYN was over 1 µM throughout.

Turning to `CN(C)CC1CCN(CCn2nc(-c3cnc4[nH]ccc4c3)c3c(N)ncnc32)CC1` [Compound 221, 1-[2-[4-(dimethylaminomethyl)-1-piperidyl]ethyl]-3-(1H-pyrrolo[2,3-b]pyridin-5-yl)pyrazolo[3,4-d]pyrimidin-4-amine], the IC50 at mTOR, on PDGFRa and on KIT was over 1 µM each time.

In the case of `CN(C)CC1CCN(CCn2nc(-c3ccc4ncccc4c3)c3c(N)ncnc32)CC1` [Compound 223, 1-[2-[4-(dimethylaminomethyl)-1-piperidyl]ethyl]-3-(6-quinolyl)pyrazolo[3,4-d]pyrimidin-4-amine], the EC50 in the assay on MCF7 cells was over 10 µM.

Consider `COc1ccc(-c2nn(CCN3CCC(CN(C)C)CC3)c3ncnc(N)c23)cc1OC` [Compound 224, 3-(3,4-dimethoxyphenyl)-1-[2-[4-(dimethylaminomethyl)-1-piperidyl]ethyl]pyrazolo[3,4-d]pyrimidin-4-amine], for which the EC50 in the assay on MCF7 cells was over 10 µM.

With `CN(C)CC1CCN(CCn2nc(-c3cccc(O)c3)c3c(N)ncnc32)CC1` [Compound 225, 3-[4-amino-1-[2-[4-(dimethylaminomethyl)-1-piperidyl]ethyl]pyrazolo[3,4-d]pyrimidin-3-yl]phenol], the half-maximal effective concentration (EC50) with MCF7 cells was over 10 µM.

As to `CN(C)CC1CCN(CCn2nc(-c3ccoc3)c3c(N)ncnc32)CC1` [Compound 226, 1-[2-[4-(dimethylaminomethyl)-1-piperidyl]ethyl]-3-(3-furyl)pyrazolo[3,4-d]pyrimidin-4-amine], the EC50 in the assay with MCF7 cells was over 10 µM.

Turning to `CN(C)CC1CCN(CCn2nc(C#Cc3ccccc3)c3c(N)ncnc32)CC1` [Compound 230, 1-[2-[4-(dimethylaminomethyl)-1-piperidyl]ethyl]-3-(2-phenylethynyl)pyrazolo[3,4-d]pyrimidin-4-amine], the EC50 in the assay on MCF7 cells is over 10 µM.

Regarding `CN(C)CC1CCN(CCn2nc(I)c3c(N)ncnc32)CC1` [Compound 232, 1-[2-[4 (dimethylaminomethyl)-1-piperidyl]ethyl]-3-iodo-pyrazolo[3,4-d]pyrimidin-4-amine], in the assay with MCF7 cells, the EC50 is over 10 µM.

Take `CN(C)C1CCN(CCn2nc(-c3cnc4[nH]ccc4c3)c3c(N)ncnc32)CC1` [Compound 402, 1-[2-[4-(dimethylamino)-1-piperidyl]ethyl]-3-(1H-pyrrolo[2,3-b]pyridin-5-yl)pyrazolo[3,4-d]pyrimidin-4-amine]: the IC50 on mTOR, on PDGFRa, at KIT and on HCK was over 1 µM in each case.

As for `COc1cc(-c2nn(CCN3CCC(N(C)C)CC3)c3ncnc(N)c23)ccc1NC(=O)CC(C)(C)C` [Compound 526, N-[4-[4-amino-1-[2-[4-(dimethylamino)-1-piperidyl]ethyl]pyrazolo[3,4-d]pyrimidin-3-yl]-2-methoxy-phenyl]-3,3-demethyl-butanamide], the IC50 on ABL was over 1 µM; at mTOR, over 1 µM; at PDGFRa it was over 1 µM; at KIT, over 1 µM; at RET, over 1 µM; at FGR, 0.01 to 0.1 µM. Further, the values for the IC50 on FRK/PTK5 and against LCK were over 1 µM and 0.01 to 0.1 µM, respectively.

In the case of `COc1cc(-c2nn(CCN3CCC(N(C)C)CC3)c3ncnc(N)c23)ccc1NC(=O)NC(C)(C)C` [Compound 540, 1-[4-[4-amino-1-[2-[4-(dimethylamino)-1-piperidyl]ethyl]pyrazolo[3,4-d]pyrimidin-3-yl]-2-methoxy-phenyl]-3-tert-butyl-urea], the IC50 on mTOR is over 1 µM; on PDGFRa, over 1 µM; on KIT, over 1 µM; on RET it was over 1 µM; against FGR, 0.01 to 0.1 µM; at FRK/PTK5 it was over 1 µM. The IC50 at LCK is 0.01 to 0.1 µM.

Consider `CN(C)C1CCN(CCn2nc(-c3ccc(NC(=O)OC(C)(C)C)nc3)c3c(N)ncnc32)CC1` [Compound 549, tert-butyl N-[5-[4-amino-1-[2-[4-(dimethylamino)-1-piperidyl]ethyl]pyrazolo[3,4-d]pyrimidin-3-yl]-2-pyridyl]carbamate], for which the EC50 in the assay with MCF7 cells and in the assay on MDA-MB-231 cells was over 10 µM each time.

For the compound `COc1ccc(-c2nn(CCN3CCC(N(C)C)CC3)c3ncnc(N)c23)cc1NC(=O)OC(C)(C)C` [Compound 559, tert-butyl N-[5-[4-amino-1-[2-[4-(dimethylamino)-1-piperidyl]ethyl]pyrazolo[3,4-d]pyrimidin-3-yl]-2-methoxy-phenyl]carbamate], the EC50 with MCF7 cells and in the assay with MDA-MB-231 cells was over 10 µM each time.

Take `COc1cc(-c2nn(CCN3CCC(OC)CC3)c3ncnc(N)c23)ccc1NC(=O)OC(C)(C)C` [Compound 593, tert-butyl N-[4-[4-amino-1-[2-(4-methoxy-1-piperidyl)ethyl]pyrazolo[3,4-d]pyrimidin-3-yl]-2-methoxy-phenyl]carbamate]: in the assay with MDA-MB-231 cells, the EC50 was 1 to 10 µM.

Take `COc1cc(-c2ccn(CCN3CCC(N(C)C)CC3)n2)ccc1NC(=O)OC(C)(C)C` [Compound 597, tert-butyl N-[4-[1-[2-[4-(dimethylamino)-1-piperidyl]ethyl]pyrazol-3-yl]-2-methoxy-phenyl]carbamate]: in the assay with MDA-MB-231 cells, the EC50 is over 10 µM.

What is called EC50 is the midpoint of the concentration-response curve.
